Reference: patent US20220047545A1 (priority 2020, published 2022)

What was measured:
[1] = target: RBD of SARS-CoV-2 spike protein binding to hACE2 receptor (Severe acute respiratory syndrome coronavirus 2, UniProt P0DTC2)
[2] = test system: A549 cells expressing eGFP spike protein fusing with hACE2-overexpressing A549 cells; assay type: cell-based, human; settings: 25 μg/ml, 4 h
[3] = target: T1, cellular hACE2 in hACE2/A549 cells (Homo sapiens, UniProt Q9BYF1); assay: Cellular hACE2 activity assay; settings: cell-based
T1 construct: host or cells: A549 (human alveolar epithelial) stably overexpressing hACE2
T1 sequence (Q9BYF1 18-805): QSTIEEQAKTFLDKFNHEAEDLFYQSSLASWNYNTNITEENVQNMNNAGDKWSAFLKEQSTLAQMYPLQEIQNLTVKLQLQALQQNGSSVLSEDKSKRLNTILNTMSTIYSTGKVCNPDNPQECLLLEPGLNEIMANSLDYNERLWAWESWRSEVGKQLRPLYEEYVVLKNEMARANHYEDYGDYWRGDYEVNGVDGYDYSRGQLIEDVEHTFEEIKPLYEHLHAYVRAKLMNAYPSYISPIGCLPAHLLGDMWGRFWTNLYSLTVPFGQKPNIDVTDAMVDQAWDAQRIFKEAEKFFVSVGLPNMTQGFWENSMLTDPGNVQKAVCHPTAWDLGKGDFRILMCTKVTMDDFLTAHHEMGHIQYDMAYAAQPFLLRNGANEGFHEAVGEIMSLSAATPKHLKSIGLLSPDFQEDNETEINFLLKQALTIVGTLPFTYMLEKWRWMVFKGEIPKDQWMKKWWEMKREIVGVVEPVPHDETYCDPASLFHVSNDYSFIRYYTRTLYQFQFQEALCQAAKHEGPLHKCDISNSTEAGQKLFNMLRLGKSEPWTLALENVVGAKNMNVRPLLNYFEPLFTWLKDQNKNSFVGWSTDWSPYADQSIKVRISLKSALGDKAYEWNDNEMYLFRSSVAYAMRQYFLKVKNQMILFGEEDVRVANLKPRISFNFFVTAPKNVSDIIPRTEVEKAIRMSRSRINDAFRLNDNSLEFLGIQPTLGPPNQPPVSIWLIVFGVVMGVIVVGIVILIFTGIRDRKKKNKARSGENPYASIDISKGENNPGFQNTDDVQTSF
Procedure: ACE2 activity assays: To determine the inhibitory effect of selected polyphenols on the activity of cellular hACE2 protein, hACE2/A549 cells were seeded in 48-well plates and allowed to adhere for 24 h or until reaching 99-100% of confluence. […] (Dnp)-OH. Finally, the plates were incubated at 37° C. for 1 h, and the fluorescence signal was measured at Ex/Em=320/405 nm wavelength with a spectrofluorometer (Tecan Group Ltd, Switzerland). […] Results are expressed as a percentage of polyphenol-free control (mean+/−SD, n=6).

recombinant hTMPRSS2 = target: T2, recombinant hTMPRSS2 (Homo sapiens, UniProt O15393); assay: Recombinant TMPRSS2 activity assay (cell-free); assay type: biochemical; settings: 10-25 μg/ml, 3 h treatment
T2 construct: purchased Creative BioMart
T2 sequence (O15393 whole entry): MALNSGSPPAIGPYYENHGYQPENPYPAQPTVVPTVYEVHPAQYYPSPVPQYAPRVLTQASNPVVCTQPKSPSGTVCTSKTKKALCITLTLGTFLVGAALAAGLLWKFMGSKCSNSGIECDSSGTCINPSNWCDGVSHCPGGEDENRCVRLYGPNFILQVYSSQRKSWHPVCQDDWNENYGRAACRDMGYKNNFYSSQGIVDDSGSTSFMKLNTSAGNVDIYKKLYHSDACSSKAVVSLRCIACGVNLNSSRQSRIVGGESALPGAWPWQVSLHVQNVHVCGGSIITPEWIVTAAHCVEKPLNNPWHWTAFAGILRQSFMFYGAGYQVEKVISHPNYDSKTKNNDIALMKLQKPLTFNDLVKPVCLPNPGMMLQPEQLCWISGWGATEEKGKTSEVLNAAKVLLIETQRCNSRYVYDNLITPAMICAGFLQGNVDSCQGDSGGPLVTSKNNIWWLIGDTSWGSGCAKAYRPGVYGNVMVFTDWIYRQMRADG
Procedure: To this reaction 10 μM of TMPRSS2 enzyme in assay buffer (50 mM Tris pH=8, 150 mM NaCl) was added. Following 1 h incubation at RT, detection of fluorescent signal was performed using a spectrofluorometer at Ex/Em=360/440 nm wavelength (Tecan Group Ltd, Switzerland). The positive control was 100 μM camostat mesylate. […] Results are expressed as a percentage of polyphenol-free control (mean+/−SD, n=6).
Fluorescence was assessed using a spectrofluorometer at extension/emission=360/440 nm (Tecan Group Ltd., Switzerland). The positive control was 100 μM camostat mesylate.

[4] = target: T3, human recombinant cathepsin L (Homo sapiens, UniProt P07711); assay: Cathepsin L activity, purified/recombinant enzyme (cell-free); assay type: biochemical
T3 construct: purchased BPS Bioscience
T3 sequence (P07711 114-333): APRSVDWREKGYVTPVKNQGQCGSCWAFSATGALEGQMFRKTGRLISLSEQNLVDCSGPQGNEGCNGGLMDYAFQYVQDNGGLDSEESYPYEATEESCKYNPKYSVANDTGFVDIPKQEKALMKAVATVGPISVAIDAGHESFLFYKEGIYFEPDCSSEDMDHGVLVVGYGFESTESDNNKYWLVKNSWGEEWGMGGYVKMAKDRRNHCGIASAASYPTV
Procedure: Positive control contained only cathepsin L, and negative control containing cathepsin L and cathepsin L inhibitor E64d (25 μM). The fluorescence was recorded at extension/emission=360/480 nm with a fluorescence spectrometer (Tecan Group Ltd., Switzerland).

[5] = target: T4, cathepsin L in A549 cells (Homo sapiens, UniProt P07711); assay: Cellular cathepsin L activity (lysates of treated A549 cells); assay type: cell-based; settings: 25 μg/ml, not significant
T4 construct: A549 cells were seeded in 6-well plates; endogenous in cells; host or cells: A549 (ATCC)
T4 sequence (P07711 114-333): as above
Procedure: Cathepsin L activity assays: Cellular cathepsin L activity assays were performed utilizing a Cathepsin L Activity Assay Kit (Abcam, Cambridge, Mass.) according to the manufacturer's protocol. […] The samples were then centrifuged for 2 min. at 4° C. to remove any insoluble material. Supernatants were collected and transferred to clean tubes that were kept on ice. […] The plates were incubated at 37° C. for 1 h and fluorescence signal was measure at Ex/Em=400/505 nm wavelength with a spectrofluorometer (Tecan Group Ltd, Switzerland). […] Results are expressed as a percentage of polyphenol-free control (mean+/−SD, n=6).
Cathepsin L activity assay and its cellular expression: Cathepsin L activity: Experiment was performed in cell lysates using a Cathepsin L Activity Assay Kit (Abcam, Cambridge, Mass.) according to the manufacturer's protocol. […] After 3 minutes of centrifuged for at 4° C., supernatants were collected and enzymatic reaction was set up by mixing 50 μl of treated sample, 50 μl of control sample, 50 μl of background control sample, 50 μl of positive and negative controls. […] Samples were incubated at 37° C. for 1 hour, and fluorescence was recorded at extension/emission=400/505 nm with a fluorescence spectrometer (Tecan Group Ltd., Switzerland).

[6] = test system: cathepsin L expression in A549 cells; assay: Cathepsin L expression in A549 cells (Western blot); assay type: cell-based, human
Procedure: Proteins (50 μg/well) were separated on 8-16% gradient SDS-PAGE gels and transferred to a PVDF membrane. […] Images were captured with Azure™ cSeries digital imaging system (Azure Biosystems, Dublin, Calif.) with auto-exposure settings. Densitometry was performed with NIH ImageJ software.
Cathepsin L expression: Expression of cathepsin L in cells was performed using Western blot. Briefly, 48 hours prior to the analysis, A549 cells were treated with PB at 5.0, and 10 μg/ml concentrations. Next, cells were washed with 1×PBS, lysed, and processed according to procedure described below.
Western blot: […] cells were lysed with lysis buffer [RIPA buffer plus 1× Protease Inhibitor (ThermoFisher Scientific, Waltham, Mass.)]. The protein estimation was performed with Dc Protein Assay (Bio-Rad, Hercules, Calif.). A 45 μg/well of protein was separated on 8-16% gradient SDS-PAGE gels and transferred to a PVDF membrane. Detection was performed with antibodies against cathepsin L at 1:200 dilution (Santa Cruz Biotechnology, Santa Cruz, Calif.) and against β-actin at 1:1000 dilution (Cell Signaling, Danvers, Mass.).

hACE2 [7] = target: T5, hACE2 (Homo sapiens, UniProt Q9BYF1); assay: ACE2 binding assay (ACE2 Inhibitor Screening Assay Kit); design: purchased BPS Bioscience; settings: polyphenols 5.0-25 μg/ml; PB 5.0 and 10 μg/ml
T5 sequence (Q9BYF1 18-805): as the sequence (Q9BYF1 18-805) above

hACE2 [8] = target: T5, hACE2; assay: Recombinant hACE2 activity assay (cell-free); assay type: biochemical; design: purchased BPS Bioscience
Procedure: To determine the inhibitory effect of selected polyphenols on the activity of recombinant hACE2 protein, an ACE2 Activity Screening Assay Kit (BPS Bioscience, San Diego, Calif.) was used according to the manufacturer's protocol. […] The positive control was a sample containing only ACE2 enzyme, and the negative control was a sample containing ACE2 enzyme and 10% DMSO. ACE2 fluorogenic substrate (10 μM) was added to each well, and the plate was incubated for 1 h at RT. The fluorescence was measured at Ex/Em=535/595 nm wavelength using a spectrofluorometer (Tecan Group Ltd, Switzerland). […] Results are expressed as a percentage of polyphenol-free control (mean+/−SD, n=6).
The positive control contained only ACE2 enzyme, and the negative control additionally contained 10% DMSO.

[9] = test system: lysosomal/endosomal pH in A549 cells; assay: Endosomal/lysosomal pH assay; assay type: cell-based, human; settings: 5.0-25 μg/ml; control approximately pH=5.0
Procedure: Endosomal/lysosomal pH assay: Endosomal pH was assessed according to a previously reported protocol [54]. […] Acridine orange (Thermo Fisher Scientific, Waltham, Mass.) was added directly to each dish to reach a final concentration of 6.6 μg/ml. The cells were additionally incubated at 37° C. with 5% CO2 for 20 min. and washed three times with 1×PBS. Live Cell Imaging Solution (LCIS) (Thermo Fisher Scientific, Waltham, Mass.) was added to the wells, and images were taken using a Zeiss Axio Observer A1 fluorescence microscope with a 40× magnification. […] Results are expressed as a percentage of polyphenol-free control (mean+/−SD, n=3).
A concurrent experiment was performed using pHrodo™ Green AM Intracellular pH Indicator (Thermo Fisher Scientific, Waltham, Mass.) according to the manufacturer's protocol. […] The plate was incubated for 30 min. at 37° C., washed again with LCIS, and fluorescence was measured at Ex/Em=509/533 nm wavelength using a spectrofluorometer (Tecan Group Ltd, Switzerland). pH identification was performed based on standard curve, using an Intracellular pH Calibration Buffer Kit according to the manufacturer's protocol (Thermo Fisher Scientific, Waltham, Mass.). […] Next, the fluorescence was measured Ex/Em=509/533 nm wavelength. […]

| Compound | Binding with RBD (% of control ± SD) [1] | decrease of cell-cell fusion [2] | effect on ACE2 activity [3] | inhibition of recombinant hTMPRSS2 activity (recombinant hTMPRSS2) | effect on recombinant cathepsin L [4] | decrease of cathepsin L activity in cell lysates [5] | cathepsin L expression at protein level ([6]; A549 cells) | direct binding to ACE2 receptor (hACE2 [7]) | effect on ACE2 activity (hACE2 [8]) | decrease of cathepsin L expression ([6]; starting from 10 μg/ml) | lysosomal/endosomal pH reached [9] |
| --- | --- | --- | --- | --- | --- | --- | --- | --- | --- | --- | --- |
| Oc1ccc2c(c1)OC[C@]1(O)Cc3cc(O)c(O)cc3[C@H]21 [Brazilin] | 100 ± 0.1 % of control | 40% | no effects | 20-30% | minor, not significant effect | 15% | neither brazilin nor curcumin down-regulated cathepsin L expression | does not bind to ACE2 directly | no effects |  |  |
| Theaflavin-3,3′-digallate |  |  |  |  |  |  |  |  |  | about 20% | 5.5-6.0 |
